36 molecules from paper PMC7796031, “Studies of Coumarin Derivatives for Constitutive Androstane Receptor (CAR) Activation” (Molecules, 2020) can be followed below.

The target in the first assay is T1, Constitutive androstane receptor (CAR) (Homo sapiens, UniProt Q14994).
T1 construct: The pGL4-gtPBREM plasmid was transfected into Hep3B cells; endogenous in cells
T1 sequence (Q14994 1-352): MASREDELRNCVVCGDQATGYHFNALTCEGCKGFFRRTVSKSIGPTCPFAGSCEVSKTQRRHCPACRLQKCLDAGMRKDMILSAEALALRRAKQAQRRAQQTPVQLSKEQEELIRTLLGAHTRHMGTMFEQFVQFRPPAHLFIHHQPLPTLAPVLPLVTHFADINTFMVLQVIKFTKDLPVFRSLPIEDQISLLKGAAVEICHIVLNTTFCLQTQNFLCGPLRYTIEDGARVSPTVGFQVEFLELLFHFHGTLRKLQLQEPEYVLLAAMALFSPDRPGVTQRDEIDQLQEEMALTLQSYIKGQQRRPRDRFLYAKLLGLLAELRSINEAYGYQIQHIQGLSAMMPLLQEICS
The assay is described as follows: In vitro CAR activation screening assay (UGT1A1 promoter gtPBREM-pGL4 luciferase reporter in Hep3B-gtPBREM cells). The assay is classed as cell-based. As to conditions: Table 1; 10 μM; (luminescence of compound − luminescence of scoparone)/luminescence of scoparone × 100%; read-out: CAR Activation Fold. The text has this: Until now, there is no commercially available high throughput screening method for CAR activation. Traditionally, CAR activation can be detected in western blots by its downstream signals such as UGT1A1, MRP2 or CYP2B6. […] However, this method was slow and pricy. In order to rapidly screen all the compounds for CAR activation at less cost, an in vitro CAR activation screening assay was developed: DNA was extracted from Hep3B cells and UGT1A1 promoter was obtained using PCR amplification. Ligation between UGT1A1 promoter and pGL4 vector was performed and the plasmid was amplified via E. coli replication. The desired plasmid was extracted from E. coli and transfected into Hep3B. The desired colony bearing UGT1A1 promoter-pGL4 plasmid was selected by neomycin. CAR activation was measured by adding tested compounds to Hep3B for several hours and luminescence was measured. Higher activation will get higher luminescence readout. This assay system was validated with two different CAR agonists: CITCO (direct agonist) and scoparone (an indirect agonist). […] Different concentration of scoparone at 1, 5, 10 and 20 μM had been tested either for luciferase assay or downstream UGT1A1 and MRP2 expression (data not shown) and 10 μM was selected to be the best condition for the following work.
After successfully establishing the in vitro assay, all of the coumarin compounds were subjected to the screening (at 10 μM) and their SAR was discussed. Although the reporter system can successfully identify CAR-activating compounds under 8 h and display better efficiency and sensitivity compared with western blots, it only presented a medium luciferase response. According to previous studies, CITCO was reported to only moderately enhance human CAR (less than 2-fold), compared with the enhance provided by TCPOBOP for murine CAR (5- to 10-fold) in luciferase reporter assays. […] Another possibility for the medium response in our reporter system might be the contribution of the whole gtPBREM element which might include response-suppressive elements that was used and the single nucleotide variation of DR3 element which was reported to slightly reduce the original UGT1A1 activity.
The genomic DNA was isolated from Hep3B cells using Wizard® Genomic DNA Purification Kit (Promega, Fitchburg, WI, USA). The promoter region of UGT1A1 gene, gtPBREM element, was amplified by AccuPrime^TM Taq DNA Polymerase High Fidelity Kit (Invitrogen, MA, USA). The sequence of the amplified element was confirmed by DNA sequencing company and cloned into pGL4 luciferase reporter vector. The pGL4-gtPBREM plasmid was transfected into Hep3B cells. The stable pGL4-gtPBREM transfected Hep3B cells, Hep3B-gtPBREM cells, were established after G418 selection. The luciferase activity represented of CAR activation ability was measured using individual established clone. Further, CAR-shRNA was obtained from the Genomic Research Center and transfected into Hep3B-gtPBREM cells. The transient transfected shCAR-Hep3B-gtPBREM cells were used for further luciferase assays.
The Hep3B-gtPBREM cells and shCAR-Hep3B-gtPBREM cells (1.5 × 10^5 cells/well) were seeded into 12-well plates for overnight then pre-determined concentration compounds were added for desired time. After treatment, transfected cells were washed twice in PBS, lysated with 1× passive lysis buffer and luciferase intensity of equal amount of cell lysate was measured by a Synergy HT Multi-Mode Microplate Reader (BioTek, Winooski, VT, USA).
As for `O=c1ccc2c(O)cccc2o1` [Compound 1, 5-hydroxycoumarin], the activation at 10 µM came out at 6%.

With `COc1cccc2oc(=O)ccc12` [Compound 2, 5-methoxycoumarin], the activation at 10 µM is -20%.

As for `CC(=O)Oc1cccc2oc(=O)ccc12` [Compound 3], the activation at 10 µM is -32%.

Turning to `C=CCOc1cccc2oc(=O)ccc12` [Compound 4], the activation at 10 µM was -15%.

Take `CCCCOc1cccc2oc(=O)ccc12` [Compound 5]: the activation at 10 µM is -9%.

Regarding `CC(C)=CCCC(C)=CCOc1cccc2oc(=O)ccc12` [Compound 7], the activation at 10 µM was -18%.

Consider `CC(C)=CCCC(C)=CCCC(C)=CCOc1cccc2oc(=O)ccc12` [Compound 8], for which the activation at 10 µM turned out to be 2%.

`O=c1ccc2cc(O)ccc2o1` [Compound 9, 6-hydroxycoumarin]: the activation at 10 µM is -8%.

In the case of `COc1ccc2oc(=O)ccc2c1` [Compound 10, 6-methoxycoumarin], the activation at 10 µM was 32%.

Consider `CC(=O)Oc1ccc2oc(=O)ccc2c1` [Compound 12], for which the activation at 10 µM was -22%.

Regarding `C=CCOc1ccc2oc(=O)ccc2c1` [Compound 13], the activation at 10 µM was -17%.

Regarding `CCCCOc1ccc2oc(=O)ccc2c1` [Compound 14], the activation at 10 µM amounted to 37%.

On to `CC(C)=CCOc1ccc2oc(=O)ccc2c1` [Compound 15], for which the activation at 10 µM stood at 22%.

In the case of `CC(C)=CCCC(C)=CCOc1ccc2oc(=O)ccc2c1` [Compound 16], the activation at 10 µM amounted to 18%.

On to `CC(C)=CCCC(C)=CCCC(C)=CCOc1ccc2oc(=O)ccc2c1` [Compound 17], for which the activation at 10 µM is -41%.

For `O=c1ccc2ccc(O)cc2o1` [Compound 18, umbelliferone], the activation at 10 µM is -1%.

Consider `COc1ccc2ccc(=O)oc2c1` [Compound 19, 7-methoxycoumarin], for which the activation at 10 µM is -9%.

Regarding `CC(=O)Oc1ccc2ccc(=O)oc2c1` [Compound 21], the activation at 10 µM is -37%.

In the case of `CC(C)=CCOc1ccc2ccc(=O)oc2c1` [Compound 24], the activation at 10 µM was -35%.

For the molecule `CC(C)=CCCC(C)=CCOc1ccc2ccc(=O)oc2c1` [Compound 25, aurapten], the activation at 10 µM is -13%.

As for `CC(C)=CCCC(C)=CCCC(C)=CCOc1ccc2ccc(=O)oc2c1` [Compound 26], the activation at 10 µM is -29%.

In the case of `O=c1ccc2cccc(O)c2o1` [Compound 27, 8-hydroxycoumarin], the activation at 10 µM came out at 40%.

Turning to `COc1cccc2ccc(=O)oc12` [Compound 28, 8-methoxycoumarin], the activation at 10 µM was -8%.

With `CC(=O)Oc1cccc2ccc(=O)oc12` [Compound 29], the activation at 10 µM is -33%.

In the case of `C=CCOc1cccc2ccc(=O)oc12` [Compound 30], the activation at 10 µM is -34%.

Consider `CCCCOc1cccc2ccc(=O)oc12` [Compound 31, 8-n-Butoxycoumarin], for which the activation at 10 µM stood at 4%.

Take `CC(C)=CCOc1cccc2ccc(=O)oc12` [Compound 32]: the activation at 10 µM was 2%.

Regarding `CC(C)=CCCC(C)=CCOc1cccc2ccc(=O)oc12` [Compound 33], the activation at 10 µM was -30%.

`CC(C)=CCCC(C)=CCCC(C)=CCOc1cccc2ccc(=O)oc12` [Compound 34]: the activation at 10 µM came out at 19%.

The assay is the same for the next values; noted with them: Table 2; 10 μM; (luminescence of compound − luminescence of scoparone)/luminescence of scoparone × 100%; read-out: CAR Activation Fold.
Turning to `O=c1ccc2cc(O)c(O)cc2o1` [Compound 35, esculetin], the activation at 10 µM was -22%.

Turning to `Cc1cc2ccc(=O)oc2cc1C` [Compound 36], the activation at 10 µM was -17%.

Take `COc1cc2oc(=O)ccc2cc1O` [Compound 37, isoscopoletin]: the activation at 10 µM is -10%.

With `COc1cc2ccc(=O)oc2cc1O` [Compound 38, scopoletin], the activation at 10 µM was -1%.

Turning to `O=c1ccc2cc3c(cc2o1)OCO3` [Compound 40, ayapin], the activation at 10 µM came to 7%.

The same assay, now with this note: read-out: CAR Activation Fold.
With `C=CCOc1ccc2ccc(=O)oc2c1` [Compound 22], the activation at 10 µM is -46%.

Consider `CCCCOc1ccc2ccc(=O)oc2c1` [Compound 23], for which the activation at 10 µM is -51%.
